The target of test [1] is SOS1 and KRAS G12D (protein-protein interaction) (Homo sapiens, UniProt Q07889). Briefly: KRAS::SOS1 AlphaScreen binding assay. Particulars: read-out: IC50 (SOS1). Summed up: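 Compounds were tested in duplicate at 11 concentrations (1:5 serial from 100 μM, 1% DMSO). They were preincubated 30 min with final 10 nM KRAS G12D, 10 μM GDP and 5 nM GST-SOS1, then glutathione acceptor and streptavidin donor beads (10 μg/mL each) were added for 60 min at RT in the dark. AlphaScreen signal gave IC50 via 4-parameter logistic fit.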

Test [2] concerns cleaved PARP in NCI-H358 (KRAS G12C) NSCLC cells. It is filed as cell-based, human. Particulars: NCI-H358, 3D, 10% serum; 1 μM I-13, 125 nM afatinib, alone or combined; 24 h, 48 h, 72 h.
The subject of test [3] is KRAS G12C mutant MIA PaCa-2 pancreatic xenograft. Format: in vivo, mouse. Particulars: monotherapy. The procedure:
In Vivo Efficacy Experiments
Cultures are incubated at 37° C. and 5% CO2 in a humidified atmosphere, with medium change or subcultivation performed 2-3 times a week. For injection tumor cells are mixed with PBS including 5% FCS and Matrigel in a ratio of 1:1. 1×10EXP7 cells in a volume of 100 μL are injected subcutaneous in each mouse to establish tumors. […] The vehicle control, trametinib, 1-13 or the respective combination is administered intragastrically using a gavage needle at an application volume of 10 mL/kg in a volume of 10 mL/kg per mouse daily twice with a 6 h difference. Trametinib is dissolved in 0.5% DMSO and 0.5% Natrosol. Paclitaxel is formulated in 0.9% NaCl and is applied intravenously once a week at 10 mg/kg in a volume of 10 mL/kg. […]
Standardized irradiated diet (PROVIMI KLIBA) and autoclaved tap water are provided ad libitum. Microchips implanted subcutaneously under isoflurane anesthesia are used to identify each mouse. Cage cards showing the study number, the animal number, the compound and dose level, the administration route as well as the schedule remain with the animals throughout the study. The tumor diameter is measured two-three times a week with a caliper. The volume of each tumor [in mm^3] is calculated according to the formula “tumor volume=length*diameter2*π/6”. To monitor side effects of treatment, mice are inspected daily for abnormalities and body weight is determined daily. Animals are sacrificed at the end of the study. Animals with necrotic tumors or tumor sizes exceeding 1500 mm^3 are sacrificed early during the study for ethical reasons.
All compounds were applied twice daily per os (p.o.).

Test [4] has as its system phosphorylation of MEK1/2 (Ser217/221) in MIA PaCa-2 cells (KRAS G12C). Put plainly: MEK phosphorylation (Western blot) in MIA PaCa-2 cells. Format: cell-based, human. Conditions: MIA PaCa-2, 2D; 25 nM trametinib alone or with 1 μM I-13; 2 h, 4 h, 8 h. The source says:
ERK and MEK Phosphorylation to Investigate the Combinatorial Effect of SOS1 Inhibitors with MEK Inhibitors
ERK and MEK phosphorylation assays are also used to investigate combinatorial effects of SOS1 inhibitors with MEK inhibitors, e.g. in MIA PaCa-2 cells.
• 96-well Ultra low binding plates from Corning (CLS2474-24EA); • DMEM (Lonza BE12-604F); • Fetal Bovine Serum (FBS) from HyClone (SH30071.03); • Cell lysate buffer (CLB):10× (Cell Signaling, Cat #9803)
For lysis of the cells a 1.2 fold concentrated CLB is used including the following supplements: 120 μL Cell Lysis Buffer 10×(Cell Signaling, Cat #9803)+870 μL H2O is supplemented with 10 μL HALT Protease & Phosphatase Inhibitor Cocktail (Thermo Scientific, Prod #1861281)+1 μL PMSF Stock sol. (Sigma, Cat #P7626) […]
ImageQuant LAS 4000 is used to induce a Chemilumescence signal that is detected with an Amersham Hyperfilm MP (GE Healthcare, Cat #28906847). […] Band quantification is performed by using the software “Image Quant TL” from GE Health.
MIA PaCa-2 cells are seeded at 1.16×E6 cells per 6 well plate in 2 mL DMEM medium supplemented with 2% FCS in 6 well plates. […] The protein concentration of the cell lysate is quantified by Bradford protein assay according to the manufacturer's instructions. […]
. Cell lysate was generated at the respective timepoints and the effect on ERK or MEK phosphorylation was analysed using Western-blotting. […]
For orientation: A western blot detects proteins with antibodies after separation by electrophoresis.

Test [5] concerns phosphorylation of ERK1/2 (Thr202/Tyr204) in MIA PaCa-2 cells (KRAS G12C). Conditions: MIA PaCa-2, 2D; 50 nM trametinib.
Procedure: Secondary Antibody (incubated 1 h at room temperature): Use a blocking buffer with a 1:1000 dilution of the anti-Rabbit IgG-HRP (Dako, Cat #P0448)
ECL Western Blotting Detection Reagents (GE Healthcare, Cat #RPN2106)
The film is developed with the device Protec Optimax. Band quantification is performed by using the software “Image Quant TL” from GE Health.
Cells are incubated over night at 37° C. with 5% CO2. The next day inhibitors are added with a HP D300 digital Dispenser. Following addition of the respective inhibitor the 6-well plate is incubated for 24 h, 48 h or 72 h, respectively. At the respective timepoint cells are lysed. […] Following this the lysate is centrifuged (16000 rpm, 4° C. for 15 minutes) and the supernatant is stored at −80° C. and used for subsequent steps. The protein concentration of the cell lysate is quantified by Bradford protein assay according to the manufacturer's instructions. […]

Where two headings read alike, the source gives them in different places.

As for `COc1cc2nc(C)nc(N[C@H](C)c3cc(N)cc(C(F)(F)F)c3)c2cc1[C@H]1CC[C@H](C(=O)N(C)C)CC1` [I-355], the IC50 – broadly, the concentration that inhibits the measured activity by half – in test [1] stood at 2 nM. Regarding `COc1cc2nc(C)nc(N[C@H](C)c3cc(N)cc(C(F)(F)F)c3)c2cc1[C@H]1CC[C@@H](C(=O)N(C)C)CC1` [I-356], the concentration for half-maximal inhibition (IC50) in test [1] was 34 nM. Same read-out and setting: as for `COCCN(C)C(=O)[C@H]1CC[C@H](c2cc3c(N[C@H](C)c4cc(N)cc(C(F)(F)F)c4)nc(C)nc3cc2OC)CC1` [I-357], the figure is 3 nM.

For the compound `COCCN(C)C(=O)[C@H]1CC[C@@H](c2cc3c(N[C@H](C)c4cc(N)cc(C(F)(F)F)c4)nc(C)nc3cc2OC)CC1` [I-358], in test [1], the IC50 worked out at 49 nM. Still for that read-out and setting: then `COc1cc2nc(C)nc(N[C@H](C)c3cc(N)cc(C(F)(F)F)c3)c2cc1[C@H]1CC[C@H](C(=O)N2CCOCC2)CC1` [I-359], with 2 nM; and `COc1cc2nc(C)nc(N[C@H](C)c3cc(N)cc(C(F)(F)F)c3)c2cc1[C@H]1CC[C@@H](C(=O)N2CCOCC2)CC1` [I-360], with 25 nM; and `Cc1nc(N[C@H](C)c2cc(N)cc(C(F)(F)F)c2)c2cc([C@H]3CC[C@H](C(=O)N4CCN(C)CC4)CC3)cc(C)c2n1` [I-361], with 5 nM. `Cc1nc(N[C@H](C)c2cc(N)cc(C(F)(F)F)c2)c2cc([C@H]3CC[C@@H](C(=O)N4CCN(C)CC4)CC3)cc(C)c2n1` [I-362]: in test [1], the 50% inhibitory concentration (IC50) came to 8 nM.

Consider `Cc1nc(N[C@H](C)c2cc(N)cc(C(F)(F)F)c2)c2cc([C@H]3CC[C@H](C(=O)N(C)C)CC3)cc(C)c2n1` [I-363], for which the IC50 in test [1] was found to be 4 nM. With `Cc1nc(N[C@H](C)c2cc(N)cc(C(F)(F)F)c2)c2cc(C3=CCS(=O)(=O)CC3)cc(C)c2n1` [I-364], the concentration for half-maximal inhibition (IC50) in test [1] amounted to 11 nM. On the same count and under the same terms, as for `CNC(=O)CC(C)c1ccc2nc(C)nc(N[C@H](C)c3cccc(C(F)(F)F)c3)c2c1` (stereo partly drawn) [I-375], the figure is 36 nM.

In the case of `CONC(=O)CC(C)c1ccc2nc(C)nc(N[C@H](C)c3cccc(C(F)(F)F)c3)c2c1` (stereo partly drawn) [I-376], in test [1], the concentration for half-maximal inhibition (IC50) was determined as 34 nM.

For `CNC(=O)CC(C)c1cc2c(N[C@H](C)c3cccc(C(F)(F)F)c3)nc(C)nc2cc1C` (stereo partly drawn) [I-377], in test [1], the half-inhibitory concentration (IC50) was 10 nM. Still for that read-out and setting: as for `CONC(=O)CC(C)c1cc2c(N[C@H](C)c3cccc(C(F)(F)F)c3)nc(C)nc2cc1C` (stereo partly drawn) [I-378], the figure is 8 nM. Same read-out and setting: then `Cc1nc(N[C@H](C)c2cccc(C(F)(F)F)c2)c2cc(C(C)CC(=O)NC3CC3)c(C)cc2n1` (stereo partly drawn) [I-379], with 12 nM. With `Cc1nc(N[C@H](C)c2cccc(C(F)(F)F)c2)c2cc(C(C)CC(=O)NCC(F)(F)F)c(C)cc2n1` (stereo partly drawn) [I-380], the half-maximal inhibitory concentration (IC50) in test [1] turned out to be 42 nM. Still for that read-out and setting: as for `CNC(=O)CC(C)c1cc2c(N[C@H](C)c3cccc(C(F)(F)F)c3)nc(C)nc2cc1OC` (stereo partly drawn) [I-381], the figure is 17 nM. `CONC(=O)CC(C)c1cc2c(N[C@H](C)c3cccc(C(F)(F)F)c3)nc(C)nc2cc1OC` (stereo partly drawn) [I-382]: in test [1], the concentration for half-maximal inhibition (IC50) was determined as 16 nM. Still for that read-out and setting: then `COc1cc2nc(C)nc(N[C@H](C)c3cccc(C(F)(F)F)c3)c2cc1C(C)CC(=O)NC1CC1` (stereo partly drawn) [I-383], with 21 nM. Regarding `CN(C)C/C=C/C(=O)Nc1cc2c(Nc3ccc(F)c(Cl)c3)ncnc2cc1O[C@H]1CCOC1` [afatinib], in test [2], the “apoptosis induction (levels of cleaved PARP)” value is “needed 48 h to show apoptosis induction”. In the case of `Nc1ccn([C@@H]2O[C@H](CO)[C@@H](O)C2(F)F)c(=O)n1` [gemcitabine], the TGI (usually the reduction of tumour growth relative to the control group) in test [3] (gemcitabine 50 mg/kg q4d i.p.) is listed as 4%. Take `CC(=O)O[C@H]1C(=O)[C@@]2(C)[C@H]([C@H](OC(=O)c3ccccc3)[C@]3(O)C[C@H](OC(=O)[C@H](O)[C@@H](NC(=O)c4ccccc4)c4ccccc4)C(C)=C1C3(C)C)[C@]1(OC(C)=O)CO[C@@H]1C[C@@H]2O` [paclitaxel]: the TGI in test [3] (paclitaxel 10 mg/kg q7d i.v., day 22) worked out at 62%. As to `CC(=O)Nc1cccc(-n2c(=O)n(C3CC3)c(=O)c3c(Nc4ccc(I)cc4F)n(C)c(=O)c(C)c32)c1` [trametinib], the TGI in test [3] (trametinib 0.05 mg/kg twice daily p.o.) is 50%; in test [3] (trametinib 0.125 mg/kg twice daily p.o.), 73%. In test [3] (trametinib 0.125 mg/kg or 0.05 mg/kg twice daily p.o.), the tumor regressions result is “no regressions in any tumors”. Moreover, the “levels of phosphorylated MEK1/2 (Ser 217/221)” value in test [4] is recorded as “increased levels of MEK1/2 (Ser 217/221)”. Further, the “reduction of ERK1/2 (Thr 202/Tyr 204) phosphorylation levels compared to untreated control cells” value in test [5] is 65-75%.
